{
  "source": "patent US20260053759A1",
  "about": "“MESDOPETAM COMPOSITIONS” (ALKEM LABORATORIES LIMITED, priority 2022, published 2026)",
  "key": {"[1]": {"settings": "main metabolites in man, present in plasma and urine; cited from earlier work"}, "[2]": {"settings": "cited from earlier work"}, "rat stomachs": {"tested_on": "rat stomachs", "assay": "Gastric emptying in the rat model (phenol red method)", "format": "in vivo, Male Wistar rats", "settings": "mean ± SEM", "method": "This study aimed to investigate the prokinetic effects of Mesdopetam, a dopamine receptor antagonist, on rat stomachs by assessing gastric emptying at three different doses: 1.24 mg/kg, 2.48 mg/kg, and 3.72 mg/kg. Male Wistar rats were used as the animal model. Gastric emptying time was measured at specific time intervals post-administration, and the results were compared to determine the impact of Mesdopetam on gastric motility.\n• Animal Model: Male Wistar rats (250-300 g) were used for the study. • Drug Administration: Mesdopetam was administered orally to rats at three different doses: 1.24 mg/kg, 2.48 mg/kg, and 3.72 mg/kg. The control group received a placebo. • Experimental Groups: Rats were divided into four groups: control (receiving placebo) and three treatment groups (receiving Mesdopetam at the respective doses). • Measurement of Gastric Emptying: Gastric emptying time was measured using a non-invasive method, such as the phenol red method. Rats were fasted overnight before the experiment, and the drug was administered following the fasting period. • Data Collection: Gastric emptying time was recorded at specific time points post-treatment: 1 hour, 2 hours, 4 hours, and 8 hours. • Statistical Analysis: The data were analyzed using appropriate statistical tests (e.g., one-way ANOVA followed by post hoc tests) to determine significant differences in gastric emptying time between the control and treatment groups at each dose level.\nThe results of the study are presented as mean gastric emptying time (in minutes) for each group at different time points post-treatment: […]"}, "[3]": {"molecular_target": "dopamine D3 receptor (D3R) (Homo sapiens, UniProt P35462)", "sequence (P35462 whole entry)": "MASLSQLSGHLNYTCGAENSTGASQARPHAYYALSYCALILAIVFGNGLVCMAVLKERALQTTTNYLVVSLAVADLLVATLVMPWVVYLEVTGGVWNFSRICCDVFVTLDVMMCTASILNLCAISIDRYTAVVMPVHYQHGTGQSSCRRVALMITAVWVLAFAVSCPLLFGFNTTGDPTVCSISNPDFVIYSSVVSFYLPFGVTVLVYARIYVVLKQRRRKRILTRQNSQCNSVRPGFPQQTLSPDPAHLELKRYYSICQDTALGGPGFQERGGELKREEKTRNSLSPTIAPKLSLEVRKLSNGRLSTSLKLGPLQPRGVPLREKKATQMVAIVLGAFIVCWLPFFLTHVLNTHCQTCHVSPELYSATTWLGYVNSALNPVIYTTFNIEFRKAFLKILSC", "settings": "antagonist; cited from earlier work"}},
  "data": [
    {"compound": "CC(=O)NCCOc1cc(F)cc(S(C)(=O)=O)c1", "note": "[M2]", "values": [
      {"measurement": "pharmacological activity of metabolite", "setting": "[1]", "result": "pharmacologically inactive"}
    ]},
    {"compound": "CS(=O)(=O)c1cc(F)cc(OCCN)c1", "note": "[M1]", "values": [
      {"measurement": "pharmacological activity of metabolite", "setting": "[1]", "result": "pharmacologically inactive"}
    ]},
    {"compound": "CCN(CC)CCNC(=O)c1cc(Cl)c(N)cc1OC", "note": "[metoclopramide]", "values": [
      {"measurement": "incidence of extrapyramidal reactions", "setting": "[2]; aged and young patients", "result": "≤ 25", "unit": "%"},
      {"measurement": "reported incidence of extrapyramidal reactions", "setting": "[2]; overall", "result": 0.2, "unit": "%"}
    ]},
    {"compound": "CCCNCCOc1cc(F)cc(S(C)(=O)=O)c1", "note": "[Mesdopetam, [2-(3-fluoro-5-methylsulfonylphenoxy)ethyl]propan-1-amine]", "values": [
      {"measurement": "mean gastric emptying time", "setting": "rat stomachs; 1.24 mg/kg oral, 1 hour post-treatment", "result": "38.5 ± 1.8", "unit": "min"},
      {"measurement": "mean gastric emptying time", "setting": "rat stomachs; 1.24 mg/kg oral, 2 hours post-treatment", "result": "32.4 ± 1.5", "unit": "min"},
      {"measurement": "mean gastric emptying time", "setting": "rat stomachs; 1.24 mg/kg oral, 4 hours post-treatment", "result": "27.9 ± 1.3", "unit": "min"},
      {"measurement": "mean gastric emptying time", "setting": "rat stomachs; 1.24 mg/kg oral, 8 hours post-treatment", "result": "24.6 ± 1.1", "unit": "min"},
      {"measurement": "mean gastric emptying time", "setting": "rat stomachs; 2.48 mg/kg oral, 1 hour post-treatment", "result": "32.1 ± 1.6", "unit": "min"},
      {"measurement": "mean gastric emptying time", "setting": "rat stomachs; 2.48 mg/kg oral, 2 hours post-treatment", "result": "26.9 ± 1.4", "unit": "min"},
      {"measurement": "mean gastric emptying time", "setting": "rat stomachs; 2.48 mg/kg oral, 4 hours post-treatment", "result": "23.4 ± 1.2", "unit": "min"},
      {"measurement": "mean gastric emptying time", "setting": "rat stomachs; 2.48 mg/kg oral, 8 hours post-treatment", "result": "19.8 ± 1.0", "unit": "min"},
      {"measurement": "mean gastric emptying time", "setting": "rat stomachs; 3.72 mg/kg oral, 1 hour post-treatment", "result": "29.6 ± 1.4", "unit": "min"},
      {"measurement": "mean gastric emptying time", "setting": "rat stomachs; 3.72 mg/kg oral, 2 hours post-treatment", "result": "23.8 ± 1.2", "unit": "min"},
      {"measurement": "mean gastric emptying time", "setting": "rat stomachs; 3.72 mg/kg oral, 4 hours post-treatment", "result": "20.3 ± 1.0", "unit": "min"},
      {"measurement": "mean gastric emptying time", "setting": "rat stomachs; 3.72 mg/kg oral, 8 hours post-treatment", "result": "17.5 ± 0.9", "unit": "min"},
      {"measurement": "Ki", "setting": "[3]", "result": "~90", "unit": "nM"}
    ]}
  ]
}
